± gives the expanded uncertainty stated by the source.
How the values were obtained:
[1] = 298.15 K; 101.33 kPa; Liquid; Vibrating tube method
[2] = refractive index (Na D-line) (dimensionless); details: 298.15 K; 101.33 kPa; Liquid; Standard Abbe refractometry

mass density [1] | refractive index [2] | SMILES
873.79 ± 0.17 kg/m3 | 1.4978 ± 0.0007 | c1ccccc1 [benzene]
776.55 ± 0.19 kg/m3 | 1.3413 ± 0.0007 | CC#N [acetonitrile]
655.12 ± 0.21 kg/m3 | 1.3725 ± 0.0007 | CCCCCC [hexane]
